Results reported in the NIST ThermoML archive (doi:10.1007/s10765-013-1539-3).

Test: wn = mass fraction of the nth substance listed
Settings: Gas, Steady Flow

[HH] [hydrogen] + C
binary diffusion coefficient [m2/s], w1 = 0.5
Settings | 250 K | 280 K | 320 K | 400 K | 480 K | 560 K | 640 K | 720 K | 800 K | 900 K
100 kPa | 5.3e-05 | 6.6e-05 | 8.3e-05 | 0.000124 | 0.000173 | 0.000227 | 0.00029 | 0.00036 | 0.000434 | 0.00054
4000 kPa | 1.32e-05 | 1.84e-05 | 2.31e-05 | 3.62e-05 | 5.1e-05 | 6.7e-05 | 8.4e-05 | 0.000106 | 0.000129 | 0.000159
7000 kPa | 6.3e-06 | 8.5e-06 | 1.17e-05 | 1.82e-05 | 2.52e-05 | 3.43e-05 | 4.35e-05 | 5.4e-05 | 6.5e-05 | 8.1e-05
10000 kPa | 3.8e-06 | 5.4e-06 | 7.5e-06 | 1.2e-05 | 1.72e-05 | 2.3e-05 | 2.93e-05 | 3.61e-05 | 4.41e-05 | 5.42e-05
15000 kPa | 2.91e-06 | 4.05e-06 | 5.8e-06 | 9.5e-06 | 1.36e-05 | 1.79e-05 | 2.28e-05 | 2.81e-05 | 3.37e-05 | 4.11e-05

[HH] [hydrogen] + CC
binary diffusion coefficient [m2/s], w1 = 0.5
Settings | 250 K | 280 K | 320 K | 400 K | 480 K | 560 K | 640 K | 720 K | 800 K | 900 K
100 kPa | 4.29e-05 | 5.2e-05 | 6.5e-05 | 9.5e-05 | 0.000131 | 0.00017 | 0.000212 | 0.000261 | 0.000313 | 0.000382
3500 kPa | – | – | 1.46e-05 | 2.53e-05 | 3.6e-05 | 4.81e-05 | 6.2e-05 | 7.6e-05 | 9.1e-05 | 0.00011
7000 kPa | – | – | 3.3e-06 | 1.15e-05 | 1.75e-05 | 2.4e-05 | 3.1e-05 | 3.81e-05 | 4.61e-05 | 5.59e-05
10500 kPa | – | – | 2.4e-06 | 6.8e-06 | 1.13e-05 | 1.58e-05 | 2.04e-05 | 2.52e-05 | 3e-05 | 3.72e-05
14000 kPa | – | – | 2.21e-06 | 5e-06 | 8.6e-06 | 1.2e-05 | 1.58e-05 | 1.94e-05 | 2.33e-05 | 2.83e-05

[HH] [hydrogen] + N#N
binary diffusion coefficient [m2/s], w1 = 0.5
Settings | 250 K | 300 K | 350 K | 400 K | 500 K | 600 K | 700 K | 800 K | 900 K
100 kPa | 5.86e-05 | 8e-05 | 0.000104 | 0.000131 | 0.000192 | 0.000261 | 0.00034 | 0.000427 | 0.000523
4000 kPa | 1.52e-05 | 2.04e-05 | 2.68e-05 | 3.37e-05 | 4.95e-05 | 6.8e-05 | 8.8e-05 | 0.00011 | 0.000134
7000 kPa | 8.8e-06 | 1.24e-05 | 1.63e-05 | 2.05e-05 | 3.01e-05 | 4.1e-05 | 5.32e-05 | 6.65e-05 | 8.11e-05
10000 kPa | 6e-06 | 8.5e-06 | 1.13e-05 | 1.41e-05 | 2.07e-05 | 2.82e-05 | 3.65e-05 | 4.56e-05 | 5.55e-05
15000 kPa | 4.21e-06 | 6e-06 | 7.9e-06 | 9.8e-06 | 1.45e-05 | 1.96e-05 | 2.51e-05 | 3.15e-05 | 3.8e-05

[HH] [hydrogen] + CCC
binary diffusion coefficient [m2/s], w1 = 0.5
Settings | 250 K | 280 K | 320 K | 400 K | 480 K | 560 K | 640 K | 720 K | 800 K | 900 K
100 kPa | 3.28e-05 | 4.01e-05 | 5e-05 | 7.4e-05 | 0.000101 | 0.000131 | 0.000164 | 0.0002 | 0.00024 | 0.000292
3500 kPa | – | – | – | 1.6e-05 | 2.58e-05 | 3.56e-05 | 4.57e-05 | 5.63e-05 | 6.8e-05 | 8.3e-05
7000 kPa | – | – | – | 4.5e-06 | 1.14e-05 | 1.7e-05 | 2.21e-05 | 2.78e-05 | 3.37e-05 | 4.24e-05
10500 kPa | – | – | – | 2.98e-06 | 6.8e-06 | 1.07e-05 | 1.47e-05 | 1.83e-05 | 2.23e-05 | 2.83e-05
14000 kPa | – | – | – | 2.72e-06 | 4.9e-06 | 7.89e-06 | 1.08e-05 | 1.37e-05 | 1.65e-05 | 2.04e-05

[C-]#[O+] [carbon monoxide] + [HH]
binary diffusion coefficient [m2/s], w2 = 0.5
Settings | 250 K | 300 K | 350 K | 400 K | 500 K | 600 K | 700 K | 800 K | 900 K
100 kPa | 5.6e-05 | 7.7e-05 | 0.000101 | 0.000127 | 0.000188 | 0.000258 | 0.000337 | 0.000425 | 0.000522
4000 kPa | 1.32e-05 | 1.96e-05 | 2.58e-05 | 3.28e-05 | 4.84e-05 | 6.6e-05 | 8.7e-05 | 0.000109 | 0.000134
7000 kPa | 8e-06 | 1.16e-05 | 1.52e-05 | 1.96e-05 | 2.89e-05 | 3.97e-05 | 5.14e-05 | 6.5e-05 | 7.9e-05
10000 kPa | 5.6e-06 | 8.1e-06 | 1.09e-05 | 1.38e-05 | 2.03e-05 | 2.79e-05 | 3.63e-05 | 4.55e-05 | 5.58e-05
15000 kPa | 4e-06 | 5.6e-06 | 7.4e-06 | 9.4e-06 | 1.42e-05 | 1.96e-05 | 2.63e-05 | 3.35e-05 | 4.2e-05
